Source: ChEMBL document CHEMBL1150509, “Cycloalkylpiperazines as HIV-1 protease inhibitors: enhanced oral absorption” (Bioorg Med Chem Lett, 1995)

Tests used:
[1] = test system: Human immunodeficiency virus 1; assay: Tested in vitro against MT-4 human lymphoid cells infected with the type IIIb isolate; type: functional; conditions: Human immunodeficiency virus 1, lymphoid; read-out: CIC95
[2] = target: Human immunodeficiency virus type 1 protease (Human immunodeficiency virus 1, UniProt Q72874); assay: Tested in vitro for the ability to inhibit HIV-1 protease
[3] = test system: Human immunodeficiency virus 1; assay: Ratio of CIC95 to that of IC50 was determined; type: functional

`CCCCCCCCN1CCN(C[C@@H](O)[C@H](Cc2ccccc2)NC(=O)O[C@@H]2CCS(=O)(=O)[C@@H]2C(C)C)[C@H](C(=O)NC(C)(C)C)C1` showed an IC95 [1] of 200 nM.
`CC(C)[C@@H]1[C@H](OC(=O)N[C@@H](Cc2ccccc2)[C@H](O)CN2CCN(C3CCC3)C[C@H]2C(=O)NC(C)(C)C)CCS1(=O)=O` was tested, and the IC95 [1] was 50 nM.
Work on `CC(C)[C@@H]1[C@H](OC(=O)N[C@@H](Cc2ccccc2)[C@H](O)CN2CCN(C3CCCCCC3)C[C@H]2C(=O)NC(C)(C)C)CCS1(=O)=O` yielded an IC95 [1] of 200 nM.
In the case of `CC(C)[C@@H]1[C@H](OC(=O)N[C@@H](Cc2ccccc2)[C@H](O)CN2CCN(C3CCCCC3)C[C@H]2C(=O)NC(C)(C)C)CCS1(=O)=O`, the IC95 [1] is reported as 200 nM.
With `CC(C)[C@@H]1[C@H](OC(=O)N[C@@H](Cc2ccccc2)[C@H](O)CN2CCN(C3CCSC3)C[C@H]2C(=O)NC(C)(C)C)CCS1(=O)=O` (some centres not stated) the IC95 [1] was > 200 nM and the IC50 [2] was 8.3 nM.
In the case of `CCCN1CCN(C[C@@H](O)[C@H](Cc2ccccc2)NC(=O)O[C@@H]2CCS(=O)(=O)[C@@H]2C(C)C)[C@H](C(=O)NC(C)(C)C)C1`, the IC95 [1] is reported as 100 nM.
With `CC(C)[C@@H]1[C@H](OC(=O)N[C@@H](Cc2ccccc2)[C@H](O)CN2CCN(C3CC(c4ccccc4)C3)C[C@H]2C(=O)NC(C)(C)C)CCS1(=O)=O` (some centres not stated) the Ratio [3] was 26, the IC95 [1] was 100 nM and the IC50 [2] was 3.8 nM.
In the case of `CC(C)[C@@H]1[C@H](OC(=O)N[C@@H](Cc2ccccc2)[C@H](O)CN2CCN(C3CCOCC3)C[C@H]2C(=O)NC(C)(C)C)CCS1(=O)=O`, the IC95 [1] is reported as > 200 nM and the IC50 [2] is reported as 34.6 nM.
With `CC(C)[C@@H]1[C@H](OC(=O)N[C@@H](Cc2ccccc2)[C@H](O)CN2CCN(CC(C)(C)C)C[C@H]2C(=O)NC(C)(C)C)CCS1(=O)=O` the IC95 [1] was 200 nM.
`CC(C)[C@@H]1[C@H](OC(=O)N[C@@H](Cc2ccccc2)[C@H](O)CN2CCN(C3CC3)C[C@H]2C(=O)NC(C)(C)C)CCS1(=O)=O` was tested, and the IC95 [1] was 100 nM.
In the case of `CC(C)[C@@H]1[C@H](OC(=O)N[C@@H](Cc2ccccc2)[C@H](O)CN2CCN(C3CCSCC3)C[C@H]2C(=O)NC(C)(C)C)CCS1(=O)=O`, the IC95 [1] is reported as 200 nM.
`CC(C)CN1CCN(C[C@@H](O)[C@H](Cc2ccccc2)NC(=O)O[C@@H]2CCS(=O)(=O)[C@@H]2C(C)C)[C@H](C(=O)NC(C)(C)C)C1` was tested, and the IC95 [1] was 100 nM.
`CC(C)[C@@H]1[C@H](OC(=O)N[C@@H](Cc2ccccc2)[C@H](O)CN2CCN(C3CCCC3)C[C@H]2C(=O)NC(C)(C)C)CCS1(=O)=O` gave an IC95 [1] of 150 nM.
With `CCC(CC)N1CCN(C[C@@H](O)[C@H](Cc2ccccc2)NC(=O)O[C@@H]2CCS(=O)(=O)[C@@H]2C(C)C)[C@H](C(=O)NC(C)(C)C)C1` the IC95 [1] was > 200 nM.
With `CC(C)[C@@H]1[C@H](OC(=O)N[C@@H](Cc2ccccc2)[C@H](O)CN2CCN(C3Cc4ccccc4C3)C[C@H]2C(=O)NC(C)(C)C)CCS1(=O)=O` the Ratio [3] was 19, the IC95 [1] was 100 nM and the IC50 [2] was 5.3 nM.
In the case of `CC(C)[C@@H]1[C@H](OC(=O)N[C@@H](Cc2ccccc2)[C@H](O)CN2CCN(C(C)C)C[C@H]2C(=O)NC(C)(C)C)CCS1(=O)=O`, the IC95 [1] is reported as > 200 nM.
